“Also recorded” adds a separate entry of the source. Read-outs that look alike come from different tables or passages of the source.
Tests used:
[1] = target: T1, transient outward potassium current, ITo (Rattus norvegicus, UniProt Q62897+Q63881); assay: ITo current block (dose-response, I/V), whole-cell patch clamp in rat cardiomyocytes; assay type: cell-based, rat (Sprague Dawley); details: 15 min pre-incubation, n = 32, 6 animals; for IC50: Hill equation fit to Gmax,[X]/Gmax,[ctrl], partial block
T1 construct: INa and ITo were recorded from freshly isolated left ventricular cardiomyocytes; endogenous in cells; host or cells: freshly isolated left ventricular cardiomyocytes of adult Sprague Dawley rats
T1 sequence (Q63881 1-630): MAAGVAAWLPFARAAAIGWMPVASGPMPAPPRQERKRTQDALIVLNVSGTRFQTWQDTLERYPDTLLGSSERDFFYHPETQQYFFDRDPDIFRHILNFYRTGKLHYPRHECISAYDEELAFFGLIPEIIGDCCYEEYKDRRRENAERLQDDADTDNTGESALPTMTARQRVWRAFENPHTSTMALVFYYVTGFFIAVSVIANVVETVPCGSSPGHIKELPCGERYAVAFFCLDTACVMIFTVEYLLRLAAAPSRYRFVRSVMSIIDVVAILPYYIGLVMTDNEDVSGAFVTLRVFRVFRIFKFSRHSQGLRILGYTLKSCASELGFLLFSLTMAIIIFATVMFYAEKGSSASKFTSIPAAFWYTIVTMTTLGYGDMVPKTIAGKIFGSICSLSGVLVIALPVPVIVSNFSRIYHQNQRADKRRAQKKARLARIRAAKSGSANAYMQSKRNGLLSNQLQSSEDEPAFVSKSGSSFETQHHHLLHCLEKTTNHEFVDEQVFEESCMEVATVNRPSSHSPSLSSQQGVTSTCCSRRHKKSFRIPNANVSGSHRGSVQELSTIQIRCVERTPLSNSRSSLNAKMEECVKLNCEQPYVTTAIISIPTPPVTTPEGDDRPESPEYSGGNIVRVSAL
T1 sequence (Q62897 1-655): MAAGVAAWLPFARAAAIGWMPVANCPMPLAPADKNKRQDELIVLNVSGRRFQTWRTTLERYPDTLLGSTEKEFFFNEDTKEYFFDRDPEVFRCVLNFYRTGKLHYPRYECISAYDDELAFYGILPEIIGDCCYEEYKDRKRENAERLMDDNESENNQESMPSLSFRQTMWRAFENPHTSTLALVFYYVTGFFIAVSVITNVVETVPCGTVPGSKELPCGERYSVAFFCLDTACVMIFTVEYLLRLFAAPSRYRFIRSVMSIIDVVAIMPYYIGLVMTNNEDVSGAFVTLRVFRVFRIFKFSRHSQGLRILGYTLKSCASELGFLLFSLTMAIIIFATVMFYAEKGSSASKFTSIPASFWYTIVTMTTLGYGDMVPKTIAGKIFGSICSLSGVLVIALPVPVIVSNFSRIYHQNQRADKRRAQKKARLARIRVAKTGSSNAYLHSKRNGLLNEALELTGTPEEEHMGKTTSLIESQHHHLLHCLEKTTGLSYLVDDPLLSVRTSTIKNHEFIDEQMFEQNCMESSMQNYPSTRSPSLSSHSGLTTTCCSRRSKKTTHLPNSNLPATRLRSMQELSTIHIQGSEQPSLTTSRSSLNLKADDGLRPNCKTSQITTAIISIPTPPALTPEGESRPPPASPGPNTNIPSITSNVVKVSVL
T1 sequence (Q9JM59 1-270 partner): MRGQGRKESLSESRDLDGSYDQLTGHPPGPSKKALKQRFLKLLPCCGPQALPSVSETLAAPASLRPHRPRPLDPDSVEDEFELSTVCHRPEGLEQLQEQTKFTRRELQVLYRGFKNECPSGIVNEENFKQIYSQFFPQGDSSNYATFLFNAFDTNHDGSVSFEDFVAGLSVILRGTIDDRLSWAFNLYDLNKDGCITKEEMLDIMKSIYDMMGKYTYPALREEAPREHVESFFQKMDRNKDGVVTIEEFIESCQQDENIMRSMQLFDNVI
Method: Ventricular cardiomyocytes from adult rats were isolated by enzymatic dissociation as previously reported. Adult Sprague Dawley rats (Charles River, Montreal, QC, Canada) were heparinized (5000 U) and sedated with 2% Isoflurane in an oxygen chamber (2 L/min). Hearts were excised by thoracotomy and cannulated via the aorta to be mounted on a Langendorff perfusion apparatus. Hearts were initially perfused with standard calcium-free Tyrode solution [21] at 37 °C (3–5 min), at a rate of 13 mL/min, and pre-digested by perfusion with low-calcium (150 μM) Tyrode solution supplemented with 220–280 U/mg of low-trypsin collagenase type 2 (Worthington Biochemical, Toronto, ON, Canada) for less than 15 min.
Once removed from the Langendorf perfusion apparatus, the heart septum and left ventricle were cut and gently shaken for 3 min in a 50/50 solution (digestion sln/low-calcium Tyrode solution) to disperse the isolated cells. The supernatant of the cell solution was filtered, and cells were left to settle in a 15 mL conical tube. The procedure was repeated 4 times, and cells were divided into fractions. Cardiomyocyte pellets from each fraction were washed with low-calcium Tyrode solution. For the final washing, supernatant solution was removed and replaced by standard Kraftbrühe (KB) solution [21], and the cells were kept at 4 °C.
INa and ITo were recorded from freshly isolated left ventricular cardiomyocytes and TSA201 cells after 48 h of transfection at room temperature. Electrical currents were recorded using the patch-clamp technique in whole-cell configuration via an Axopatch 200B amplifier (Molecular Devices, Sunnyvale, CA, USA). Cardiomyocytes and TSA201 cells were pre-incubated with 2Nal during 15 min and continuously perfused during recordings. In preliminary experiments, we measured the onset of the block by 2Nal by initially superfusing with control solution and subsequently washing in 2Nal solution. Recordings were acquired at 10 kHz and filtered to 5 kHz (lowpass Bessel filter). Whole-cell capacitance and series resistance compensation (85%) were optimized to reduce the capacitive artifact and minimize voltage error. Analysis of the recordings was performed using the Clampex 10.7 analysis software.
Extracellular solution for ITo recordings in cardiomyocytes contained (in mM) 126 NaCl, 5.4 KCl, 1 MgCl2, 20 HEPES, 2 CaCl2, and 11 glucose. The pH and osmolarity were adjusted to 7.4 and 295–300 mOsm, respectively, using NaOH and sucrose. Pipette solution contained (in mM) 90 K-aspartate, 30 KCl, 1 MgCl2, 20 HEPES, 5 NaCl, 5 MgATP, 5.5 Glucose. The pH was adjusted with KOH to 7.3 and osmolarity to 295–300 mOsm. For ITo recordings in TSA201 cells, extracellular solution contained 130 NaCl, 5 KCl, 1 MgCl2, 2.8 Na-acetate, 10 HEPES, 1.8 CaCl2, and 10 glucose. […]

[2] = tested on: rabbit left-atrium cardiomyocytes; parameters: method as in PMID 23106642; details: cited from earlier work
[3] = tested on: cardiac sodium current (INa); details: cited from earlier work
Source text: At this stage, we cannot distinguish how specific affinities of Kv4.2 or Kv4.3 for 2Nal modulate the overall effect on ITo amplitude in native cardiomyocytes. However, our observation of apparent EC50 differing between the peak and sustained co ...

[4] = tested on: ultra-rapid potassium current; parameters: method as in PMID 23106642; details: rabbit left-atrium cardiomyocytes; cited from earlier work
[5] = tested on: large conductance calcium-activated K^+ channels; details: cited from earlier work
heart = details: cited from earlier work
Source text: (§1) Apelin is an endogenous peptide recognized for its therapeutic potential in hypertension and heart failure, as well as for its modulation of the endocrine system. This adipokine is primarily synthesized in adipose tissue but is also produced in the gastrointestinal tract, brain, kidney, lung, mammary glands, and cardiovascular system.

artery = details: by enhancing nitric oxide (NO) production in the endothelium; cited from earlier work
Source text: as §1

[6] = tested on: transient outward potassium current, ITo, and its sustained component, IKsus; parameters: method as in PMID 18424641, PMID 12215493; details: cited from earlier work
[7] = parameters: method as in PMID 10777510, PMID 18272843; details: isoforms identified in vivo; cited from earlier work

CSCC[C@H](NC(=O)[C@@H]1CCCN1C(=O)CNC(=O)[C@H](CCCCN)NC(=O)[C@H](Cc1c[nH]cn1)NC(=O)[C@H](CO)NC(=O)[C@H](CC(C)C)NC(=O)[C@H](CCCNC(=N)N)NC(=O)[C@@H]1CCCN1C(=O)[C@H](CCCNC(=N)N)NC(=O)[C@@H](N)CCC(N)=O)C(=O)N1CCC[C@H]1C(=O)N[C@@H](Cc1ccc2ccccc2c1)C(=O)O [2Nal]
Maximum block of ITo,peak ([1]; peak component, Gmax ratio, holding −80 mV, 500 ms steps, mean ± SEM): 34.2 ± 5.6%
IC50 ([1]; peak component, read-out: IC50 (half-maximal blocking concentration) for ITo,peak): 0.3 ± 0.1 nM
Maximum block of ITo,sus ([1]; sustained component, Gmax ratio, holding −80 mV, 500 ms steps, mean ± SEM): 47 ± 9.2%
IC50 ([1]; sustained component, read-out: IC50 (half-maximal blocking concentration) for ITo,sus): 0.024 ± 0.01 nM

apelin
effect on action potential duration [2]: reduces action potential duration (APD)
effect on cardiac sodium current INa [3]: increase in INa; also recorded: modulate cardiac sodium current (INa) gating and enhance its amplitude
effect on ultra-rapid potassium current [4]: blocks the ultra-rapid potassium current
effect on large conductance calcium-activated K+ channels [5]: inhibiting large conductance calcium-activated K^+ channels
cardiac inotropic effect (heart): strong positive cardiac inotropic effects
vasodilation (artery): triggers arterial vasodilation
effect on ITo and IKsus [6]: no effects

apelin-36: predominant apelin isoform identified in vivo (LVQPRGSRNGPGPWQGGRRKFRRQRPRLSHKGPMPF; Apelin-36; UniProt Q9ULZ1 42-77, looked up)
susceptibility to proteolysis [7]: highly susceptible to proteolysis
